Reference: patent publication US20190216793A1, “COMPOSITIONS AND METHODS FOR TREATING NEGATIVE SYMPTOMS IN NON-SCHIZOPHRENIC PATIENTS” (Minerva Neurosciences, Inc., priority 2016, published 2019)
Read-outs that look alike come from different tables or passages of the source.

Columns and labels:
sigma2 [1] = target: T1, sigma2 (Homo sapiens, UniProt Q5BJF2); assay: receptor affinity; assay type: binding
[2] = target: 5-hydroxytryptamine-2A (5-HT2A) (Homo sapiens, UniProt P28223); assay: receptor affinity; assay type: binding
Chain of 5-hydroxytryptamine-2A (5-HT2A) (P28223 whole entry, species assumed): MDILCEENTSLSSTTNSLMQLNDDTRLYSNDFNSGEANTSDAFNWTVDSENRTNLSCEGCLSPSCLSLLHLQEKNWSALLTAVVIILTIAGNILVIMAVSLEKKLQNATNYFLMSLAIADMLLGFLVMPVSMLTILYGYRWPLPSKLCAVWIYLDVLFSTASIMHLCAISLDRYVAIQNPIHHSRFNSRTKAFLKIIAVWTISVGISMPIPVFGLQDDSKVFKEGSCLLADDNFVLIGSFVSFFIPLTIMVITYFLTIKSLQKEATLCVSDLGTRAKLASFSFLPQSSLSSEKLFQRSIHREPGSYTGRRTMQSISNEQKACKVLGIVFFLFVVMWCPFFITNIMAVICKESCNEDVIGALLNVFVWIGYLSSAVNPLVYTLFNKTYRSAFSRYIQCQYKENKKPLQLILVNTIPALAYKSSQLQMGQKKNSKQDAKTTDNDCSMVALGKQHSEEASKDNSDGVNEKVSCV

α1-adrenergic receptors = assay: receptor affinity; assay type: binding
[3] = tested on: patients with negative symptoms of schizophrenia; details: for improvement of negative symptoms compared to placebo: 32 mg and 64 mg daily doses, 244 schizophrenic patients; for effect size, PANSS Negative Subscale score (pentagonal model), change from baseline vs placebo: schizophrenic patients
sigma2 [4] = target: T1, sigma2; assay: in vivo functional studies; set-up: In vivo functional studies have established that MIN-101 is an antagonist; from tissue; host or cells: whole organism in vivo
[5] = QT interval association of metabolite; assay type: in vivo; details: supra-therapeutic levels
dopaminergic receptors = assay: receptor affinity; assay type: binding
muscarinic receptors = assay: receptor affinity; assay type: binding
cholinergic receptors = assay: receptor affinity; assay type: binding
histaminergic receptors = assay: receptor affinity; assay type: binding
5-HT2A receptors = target: T2, 5-HT2A receptors (Homo sapiens, UniProt P28223); assay: in vivo functional studies
T2 construct: In vivo functional studies have established that MIN-101 is an antagonist; from tissue; host or cells: whole organism in vivo
T2 sequence (P28223 whole entry): as the sequence (P28223 whole entry, species assumed) above

T1 sequence (Q5BJF2 whole entry): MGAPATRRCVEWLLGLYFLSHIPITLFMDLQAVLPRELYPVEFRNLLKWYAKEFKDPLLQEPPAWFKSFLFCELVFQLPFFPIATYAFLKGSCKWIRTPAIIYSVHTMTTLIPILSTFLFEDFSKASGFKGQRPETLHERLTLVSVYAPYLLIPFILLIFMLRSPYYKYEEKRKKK

O=C(CN1CCC(CN2Cc3ccccc3C2=O)CC1)c1ccc(F)cc1 [Compound I]
affinity for sigma2 (sigma2 [1]): specific affinities
affinity for 5-HT2A [2]: specific affinities
affinity for α1-adrenergic receptors (α1-adrenergic receptors): lower affinity levels
improvement of negative symptoms compared to placebo ([3]; 12 weeks): statistically significant improvement
functional activity at sigma2 receptors (sigma2 [4]): antagonizes sigma2 activity

O=C1c2ccccc2CN1CC1CCN(CC(O)c2ccc(F)cc2)CC1 (stereo not drawn) [BFB-520]
effect on QT intervals [5]: prolongation of QT intervals

Cl.O.O.O=C(CN1CCC(CN2Cc3ccccc3C2=O)CC1)c1ccc(F)cc1 [MIN-101, 2-{1-[2-(4-Fluorophenyl)-2-oxoethyl]piperidin-4-ylmethyl}-2,3-dihydroisoindol-1-one monohydrochloride dihydrate]
affinity for dopaminergic receptors (dopaminergic receptors): very low or no affinity
affinity for muscarinic receptors (muscarinic receptors): very low or no affinity
affinity for cholinergic receptors (cholinergic receptors): very low or no affinity
affinity for histaminergic receptors (histaminergic receptors): very low or no affinity
functional activity at 5-HT2A receptors (5-HT2A receptors): antagonist
improvement of negative symptoms compared to placebo ([3]; 12 weeks): statistically significant benefit
effect size, PANSS Negative Subscale score (pentagonal model), change from baseline vs placebo ([3]; 32 mg daily, 12 weeks, p≤0.023): 0.45
effect size, PANSS total score vs placebo ([3]; 32 mg daily, 12 weeks, not significant): 0.35
effect size, PANSS three factors negative symptoms subscale vs placebo ([3]; 32 mg daily, 12 weeks, p≤0.006): 0.55
effect size, PANSS Negative Subscale score (pentagonal model), change from baseline vs placebo ([3]; 64 mg daily, 12 weeks, p≤0.003): 0.57
effect size, PANSS three factors negative symptoms subscale vs placebo ([3]; 64 mg daily, 12 weeks, p≤0.001): 0.70
effect size, PANSS total score vs placebo ([3]; 64 mg daily, 12 weeks, p≤0.003): 0.59
positive symptoms during the trial ([3]; 12-week trial): remained stable
effect on negative symptoms measured using the BNSS total score ([3]; both doses (32 mg and 64 mg daily), 12 weeks): Improvement in negative symptoms
incidence and types of side effects, MIN-101 group vs placebo group ([3]; human, in vivo): did not differ significantly
metabolic adverse effects ([3]; human, in vivo): no metabolic adverse effects
prolactin elevation ([3]; human, in vivo): no prolactin elevation
functional activity at sigma2 receptors (sigma2 [4]): antagonist
